We go through two compounds from patent publication US20080275215A1, “Fluorescein-Based Compounds And Their Use For Peptide Synthesis” (COMMISSARIAT A L'ENERGIE ATOMIQUE, priority 2005, published 2008).

The structures appear in SMILES notation.

Common to all, as to assay type: physicochemical
Data set [1] in a line: UV-visible absorbance spectra. As to conditions: for absorbance maximum (longer wavelength) / absorbance maximum (shorter wavelength): 50 mM sodium tetraborate buffer pH 9.8; for molar extinction coefficient: at 456 nm. The method, then:
(§1) Standard UV-visible and fluorescence spectra were recorded in 50 mM sodium tetraborate buffer pH 9.8 at 0.5-10 μM fluorescent compounds concentration. The fluorescence quantum yield of the fluorescent compounds was determined as described by Adamczyk et al. (previously cited) using alkaline solution of fluorescein as a reference (φ=0.92) (Lohse et al.; Adamczyk et al.; Klonis et al. and Martin et al., all previously cited).

Data set [2] in a line: Dye photostability (photobleaching) study under fluorescence microscope. As to conditions: after 6 min of irradiation. As for the experimental part:
Super-Teflon glass slides (VWR International) carrying 40 circular wells of 2 mm diameter, separated by 30 μm-thick Teflon coating were used in dye photostability study. A well was filled with 1 μl of 5 mM fluorescein compounds k) (dye 15) or 1) (dye 16) solution in 50 mM sodium tetraborate buffer pH 9.8 and was enclosed with a coverslip.
The entire well volume was irradiated under the microscope with standard “fluorescein” filters set. The intensity delivered by the source on the surface of the slide was measured with a COHERENT LaserCheck probe, and found to be ˜6 mW/cm^2 at 488 nm. Well images were recorded regularly with IMSTAR software and mean fluorescence intensity was calculated.
For comparison of the photostability of fluorophores under the condition of signal acquisition with fluorescent microscope, the sample was placed in a well on the surface of a glass slide that contains 40 circular wells of 2 mm diameter, separated by 30 μm-thick Teflon coating. The well was then enclosed with a coverslip producing a cylindrical sample chamber of ˜380 nl volume. […] The resulted light intensity at the chamber level was measured to be ˜6 mW/mm^2. At different times the fluorescence images of the well were taken and mean fluorescence intensity was calculated using IMSTAR software (Khomyakova et al., previously cited).

Data set [3] can be described thus: Fluorescence emission spectra and fluorescence quantum yield. Conditions: for fluorescence emission λmax: 50 mM sodium tetraborate buffer pH 9.8; for fluorescence quantum yield φ: alkaline fluorescein as reference. As for the experimental part:
as §1

The nature of data set [4]: pH effect on fluorescence. Conditions: range of pH 4.0-10.0; λexc 488 nm/λem 515 nm. The method, then:
To measure the pH effect on fluorescence, 50 nM of fluorescent compounds k) (dye 15) or l) (dye 16) solution in 50 mM sodium tetraborate buffer (pH 9.8) was slowly titrated with HCl, aliquots were taken between pH 9.8 and 4, and fluorescence was measured at λexc 488 nm/λem 515 nm.

The nature of data set [5]: Stability of 2'-ester toward alkaline hydrolysis. Conditions: several hours in aqueous pH 9.8 buffer. From the text:
This is explained by the absence of ionic equilibrium in 3-O-alkyl fluorescein derivatives trapped in a tautomeric quinoid form by 2′-esterification. The stability of 2′-ester toward an alkaline hydrolysis was also checked by following the absorbance and fluorescence spectra.

On to `CCOC(=O)c1cc(NC(C)=O)ccc1-c1c2ccc(=O)cc-2oc2cc(OCC(=O)O)ccc12` [k), 5-acetylamino-2-(6-carboxymethoxy-3-oxo-3H-xanthen-9-yl)-benzoic acid ethyl ester], for which, in data set [1], the “absorbance maximum (longer wavelength)” value is 481 nm, the “absorbance maximum (shorter wavelength)” value was 456 nm and the molar extinction coefficient was 22000 L/mol/cm. The compound further returned a decrease in fluorescence in data set [2] of approximately 10%. Also, in data set [3], the “fluorescence emission λmax” value was found to be 520 nm and the “fluorescence quantum yield φ” value was found to be 0.19. Further, in data set [4], the “pH-dependence of fluorescence and quantum yield” value is recorded as “virtually pH-independent”. Besides, the “changes in absorbance and fluorescence spectra (2'-ester alkaline hydrolysis)” value in data set [5] is “No significant changes”.

Regarding `CCOC(=O)c1ccc(NC(C)=O)cc1-c1c2ccc(=O)cc-2oc2cc(OCC(=O)O)ccc12` [l), 4-acetylamino-2-(6-carboxymethoxy-3-oxo-3H-xanthen-9-yl)-benzoic acid ethyl ester], in data set [1], the “absorbance maximum (longer wavelength)” value is recorded as 481 nm, the “absorbance maximum (shorter wavelength)” value stood at 456 nm and the molar extinction coefficient stood at 23000 L/mol/cm. In addition, in data set [2], the decrease in fluorescence is listed as approximately 10%. In addition, in data set [3], the “fluorescence emission λmax” value stood at 520 nm and the “fluorescence quantum yield φ” value was determined as 0.18. For the same compound, the “pH-dependence of fluorescence and quantum yield” value in data set [4] is reported as “virtually pH-independent”. For the same compound, the “changes in absorbance and fluorescence spectra (2'-ester alkaline hydrolysis)” value in data set [5] is reported as “No significant changes”.
